For the first assay, the system named is E. faecalis (CL 4877). Briefly: Zone of inhibition screen, 96 well agar array format. The format is cell-based. Details: scale not given here. The conditions noted are these: zone of inhibition relative to 1 mg/ml p-chlorobiphenylvancomycin. On the procedure: (§1) The antibacterial activity of each of the compounds against the bacterial strains E. faceium (ATCC 49624), S. epidermidis (ATCC 12228), S. aureus (ATCC 29213), E. faecalis (CL 4877) and E. faecalis (ATCC 292121) was tested. Each of the compounds was screened in a 96 will agar array format.
In the case of `CC1OC(OC2C(Oc3c4cc5cc3Oc3ccc(cc3Cl)C(O)C3NC(=O)C(NC(=O)C5NC(=O)C(CC(N)=O)NC(=O)C(NC(=O)c5cccnc5O)C(O)c5ccc(c(Cl)c5)O4)c4ccc(O)c(c4)-c4c(O)cc(O)cc4C(C(=O)O)NC3=O)OC(CO)C(O)C2O)CC(C)(NCc2ccc(-c3ccc(Cl)cc3)cc2)C1O` (centres unmarked) [Compound 241], the “zone score, E. faecalis CL 4877” value is 2.

Turning to `CC1OC(OC2C(Oc3c4cc5cc3Oc3ccc(cc3Cl)C(O)C3NC(=O)C(NC(=O)C5NC(=O)C(CC(N)=O)NC(=O)C(NC(=O)c5ccc(N)cc5)C(O)c5ccc(c(Cl)c5)O4)c4ccc(O)c(c4)-c4c(O)cc(O)cc4C(C(=O)O)NC3=O)OC(CO)C(O)C2O)CC(C)(NCc2ccc(-c3ccc(Cl)cc3)cc2)C1O` (centres unmarked) [Compound 268], the “zone score, E. faecalis CL 4877” value was 2. Consider `CCSCC(=O)NC1C(=O)NC(CC(N)=O)C(=O)NC2C(=O)NC3C(=O)NC(C(=O)NC(C(=O)O)c4cc(O)cc(O)c4-c4cc3ccc4O)C(O)c3ccc(c(Cl)c3)Oc3cc2cc(c3OC2OC(CO)C(O)C(O)C2OC2CC(C)(NCc3ccc(-c4ccc(Cl)cc4)cc3)C(O)C(C)O2)Oc2ccc(cc2Cl)C1O` (centres unmarked) [Compound 225], for which the “zone score, E. faecalis CL 4877” value is listed as 2.

The same assay, now with this note: zone of inhibition relative to 1 mg/ml stock solution of p-chlorobiphenylvancomycin.
On to `CC(OC(c1ccccc1)(c1ccccc1)c1ccccc1)[C@H](N)C(=O)N[C@H]1C(=O)N[C@@H](CC(N)=O)C(=O)N[C@H]2C(=O)N[C@H]3C(=O)N[C@H](C(=O)N[C@@H](C(=O)O)c4cc(O)cc(O)c4-c4cc3ccc4O)[C@H](O)c3ccc(c(Cl)c3)Oc3cc2cc(c3O[C@@H]2O[C@H](CO)[C@@H](O)[C@H](O)[C@H]2O[C@@H]2C[C@@](C)(NCc3ccc(-c4ccc(Cl)cc4)cc3)[C@@H](O)[C@@H](C)O2)Oc2ccc(cc2Cl)[C@H]1O` (some centres unmarked) [Compound 11], for which the “zone score, E. faecalis CL 4877” value amounted to 2. Consider `CC1OC(OC2C(Oc3c4cc5cc3Oc3ccc(cc3Cl)C(O)C3NC(=O)C(NC(=O)C5NC(=O)C(CC(N)=O)NC(=O)C(NC(=O)CN(C)C(=N)N)C(O)c5ccc(c(Cl)c5)O4)c4ccc(O)c(c4)-c4c(O)cc(O)cc4C(C(=O)O)NC3=O)OC(CO)C(O)C2O)CC(C)(NCc2ccc(-c3ccc(Cl)cc3)cc2)C1O` (centres unmarked) [Compound 145], for which the “zone score, E. faecalis CL 4877” value is on record as 2. The same measure, in the same setting: under `C=CCOC(=O)NCC(N)C(=O)NC1C(=O)NC(CC(N)=O)C(=O)NC2C(=O)NC3C(=O)NC(C(=O)NC(C(=O)O)c4cc(O)cc(O)c4-c4cc3ccc4O)C(O)c3ccc(c(Cl)c3)Oc3cc2cc(c3OC2OC(CO)C(O)C(O)C2OC2CC(C)(NCc3ccc(-c4ccc(Cl)cc4)cc3)C(O)C(C)O2)Oc2ccc(cc2Cl)C1O` (centres unmarked) [Compound 92] stands 2; under `CC1OC(OC2C(Oc3c4cc5cc3Oc3ccc(cc3Cl)[C@@H](O)[C@@H](NC(=O)CNC(N)=O)C(=O)N[C@@H](CC(N)=O)C(=O)N[C@H]5C(=O)NC3C(=O)N[C@H](C(=O)N[C@@H](C(=O)O)c5cc(O)cc(O)c5-c5cc3ccc5O)[C@H](O)c3ccc(c(Cl)c3)O4)OC(CO)C(O)C2O)CC(C)(NCc2ccc(-c3ccc(Cl)cc3)cc2)C1O` (some centres unmarked) [Compound 162], 2. The same measure, in the same setting: under `COCCOCCOCC(=O)NC1C(=O)NC(CC(N)=O)C(=O)NC2C(=O)NC3C(=O)NC(C(=O)NC(C(=O)O)c4cc(O)cc(O)c4-c4cc3ccc4O)C(O)c3ccc(c(Cl)c3)Oc3cc2cc(c3OC2OC(CO)C(O)C(O)C2OC2CC(C)(NCc3ccc(-c4ccc(Cl)cc4)cc3)C(O)C(C)O2)Oc2ccc(cc2Cl)C1O` (centres unmarked) [Compound 101] stands 2; under `CC1OC(OC2C(Oc3c4cc5cc3Oc3ccc(cc3Cl)C(O)C3NC(=O)C(NC(=O)C5NC(=O)C(CC(N)=O)NC(=O)C(NC(=O)C(CCCNC(=N)N)NC(=O)CNC(=O)OC(C)(C)C)C(O)c5ccc(c(Cl)c5)O4)c4ccc(O)c(c4)-c4c(O)cc(O)cc4C(C(=O)O)NC3=O)OC(CO)C(O)C2O)CC(C)(NCc2ccc(-c3ccc(Cl)cc3)cc2)C1O` (centres unmarked) [Compound 138], 2. The same measure, in the same setting: in the case of `CC(=O)NCC(=O)N[C@H]1C(=O)N[C@@H](CC(N)=O)C(=O)N[C@H]2C(=O)NC3C(=O)N[C@H](C(=O)N[C@@H](C(=O)O)c4cc(O)cc(O)c4-c4cc3ccc4O)[C@H](O)c3ccc(c(Cl)c3)Oc3cc2cc(c3OC2OC(CO)C(O)C(O)C2OC2CC(C)(NCc3ccc(-c4ccc(Cl)cc4)cc3)C(O)C(C)O2)Oc2ccc(cc2Cl)[C@H]1O` (some centres unmarked) [Compound 179] it was 2; in that of `CC1OC(OC2C(Oc3c4cc5cc3Oc3ccc(cc3Cl)C(O)C(NC(=O)C3(O)CC(O)C(O)C(O)C3)C(=O)NC(CC(N)=O)C(=O)NC5C(=O)NC3C(=O)NC(C(=O)NC(C(=O)O)c5cc(O)cc(O)c5-c5cc3ccc5O)C(O)c3ccc(c(Cl)c3)O4)OC(CO)C(O)C2O)CC(C)(NCc2ccc(-c3ccc(Cl)cc3)cc2)C1O` (centres unmarked) [Compound 146], 2. Turning to `CC(=O)NC(CCCNC(=N)N)C(=O)NC1C(=O)NC(CC(N)=O)C(=O)NC2C(=O)NC3C(=O)NC(C(=O)NC(C(=O)O)c4cc(O)cc(O)c4-c4cc3ccc4O)C(O)c3ccc(c(Cl)c3)Oc3cc2cc(c3OC2OC(CO)C(O)C(O)C2OC2CC(C)(NCc3ccc(-c4ccc(Cl)cc4)cc3)C(O)C(C)O2)Oc2ccc(cc2Cl)C1O` (centres unmarked) [Compound 111], the “zone score, E. faecalis CL 4877” value is on record as 2. `CC1OC(OC2C(Oc3c4cc5cc3Oc3ccc(cc3Cl)C(O)C(NC(=O)C(O)C(O)C(O)CO)C(=O)NC(CC(N)=O)C(=O)NC5C(=O)NC3C(=O)NC(C(=O)NC(C(=O)O)c5cc(O)cc(O)c5-c5cc3ccc5O)C(O)c3ccc(c(Cl)c3)O4)OC(CO)C(O)C2O)CC(C)(NCc2ccc(-c3ccc(Cl)cc3)cc2)C1O` (centres unmarked) [Compound 127]: the “zone score, E. faecalis CL 4877” value is recorded as 2.

For `CC(=O)NCSCC(N)C(=O)NC1C(=O)NC(CC(N)=O)C(=O)NC2C(=O)NC3C(=O)NC(C(=O)NC(C(=O)O)c4cc(O)cc(O)c4-c4cc3ccc4O)C(O)c3ccc(c(Cl)c3)Oc3cc2cc(c3OC2OC(CO)C(O)C(O)C2OC2CC(C)(NCc3ccc(-c4ccc(Cl)cc4)cc3)C(O)C(C)O2)Oc2ccc(cc2Cl)C1O` (centres unmarked) [Compound 55], the “zone score, E. faecalis CL 4877” value was 2. On the same count and under the same terms, in the case of `C[C@H]1O[C@H](O[C@H]2[C@H](Oc3c4cc5cc3Oc3ccc(cc3Cl)[C@@H](O)[C@@H](NC(=O)[C@H](N)CSC(c3ccccc3)(c3ccccc3)c3ccccc3)C(=O)N[C@@H](CC(N)=O)C(=O)N[C@H]5C(=O)N[C@H]3C(=O)N[C@H](C(=O)N[C@@H](C(=O)O)c5cc(O)cc(O)c5-c5cc3ccc5O)[C@H](O)c3ccc(c(Cl)c3)O4)O[C@H](CO)[C@@H](O)[C@@H]2O)C[C@@](C)(NCc2ccc(-c3ccc(Cl)cc3)cc2)[C@H]1O` [Compound 14] it was 2; in that of `Cc1ccc(C(NCCCCC(N)C(=O)NC2C(=O)NC(CC(N)=O)C(=O)NC3C(=O)NC4C(=O)NC(C(=O)NC(C(=O)O)c5cc(O)cc(O)c5-c5cc4ccc5O)C(O)c4ccc(c(Cl)c4)Oc4cc3cc(c4OC3OC(CO)C(O)C(O)C3OC3CC(C)(NCc4ccc(-c5ccc(Cl)cc5)cc4)C(O)C(C)O3)Oc3ccc(cc3Cl)C2O)(c2ccccc2)c2ccccc2)cc1` (centres unmarked) [Compound 40], 2.

For a further assay, the system named is S. aureus (ATCC 29213). The assay is described as above. The format is cell-based. Details: scale not given here. The conditions noted are these: zone of inhibition relative to 1 mg/ml p-chlorobiphenylvancomycin. On the procedure: as §1
`COC(=O)C1=C(C)NC(=O)C1CC(=O)NC1C(=O)NC(CC(N)=O)C(=O)NC2C(=O)NC3C(=O)NC(C(=O)NC(C(=O)O)c4cc(O)cc(O)c4-c4cc3ccc4O)C(O)c3ccc(c(Cl)c3)Oc3cc2cc(c3OC2OC(CO)C(O)C(O)C2OC2CC(C)(NCc3ccc(-c4ccc(Cl)cc4)cc3)C(O)C(C)O2)Oc2ccc(cc2Cl)C1O` (mixture of isomers) [Compound 299]: the “zone score, S. aureus ATCC 29213” value amounted to 2. On the same count and under the same terms, under `CC1OC(OC2C(Oc3c4cc5cc3Oc3ccc(cc3Cl)C(O)C(NC(=O)C(F)(F)C(F)(F)C(F)(F)C(F)(F)F)C(=O)NC(CC(N)=O)C(=O)NC5C(=O)NC3C(=O)NC(C(=O)NC(C(=O)O)c5cc(O)cc(O)c5-c5cc3ccc5O)C(O)c3ccc(c(Cl)c3)O4)OC(CO)C(O)C2O)CC(C)(NCc2ccc(-c3ccc(Cl)cc3)cc2)C1O` (centres unmarked) [Compound 311] stands 2.

The assay is the same for the next values; noted with them: zone of inhibition relative to 1 mg/ml stock solution of p-chlorobiphenylvancomycin.
For `CC1OC(OC2C(Oc3c4cc5cc3Oc3ccc(cc3Cl)C(O)C(NC(=O)C(C)(C)NC(N)=O)C(=O)NC(CC(N)=O)C(=O)NC5C(=O)NC3C(=O)NC(C(=O)NC(C(=O)O)c5cc(O)cc(O)c5-c5cc3ccc5O)C(O)c3ccc(c(Cl)c3)O4)OC(CO)C(O)C2O)CC(C)(NCc2ccc(-c3ccc(Cl)cc3)cc2)C1O` (centres unmarked) [Compound 190], the “zone score, S. aureus ATCC 29213” value is 2. Take `CC(=O)NCCCCC(NC(C)=O)C(=O)NC1C(=O)NC(CC(N)=O)C(=O)NC2C(=O)NC3C(=O)NC(C(=O)NC(C(=O)O)c4cc(O)cc(O)c4-c4cc3ccc4O)C(O)c3ccc(c(Cl)c3)Oc3cc2cc(c3OC2OC(CO)C(O)C(O)C2OC2CC(C)(NCc3ccc(-c4ccc(Cl)cc4)cc3)C(O)C(C)O2)Oc2ccc(cc2Cl)C1O` (centres unmarked) [Compound 123]: the “zone score, S. aureus ATCC 29213” value amounted to 2. On the same count and under the same terms, under `CC1OC(OC2C(Oc3c4cc5cc3Oc3ccc(cc3Cl)C(O)C3NC(=O)C(NC(=O)C5NC(=O)C(CC(N)=O)NC(=O)C(NC(=O)CCC(=O)NN(C)C)C(O)c5ccc(c(Cl)c5)O4)c4ccc(O)c(c4)-c4c(O)cc(O)cc4C(C(=O)O)NC3=O)OC(CO)C(O)C2O)CC(C)(NCc2ccc(-c3ccc(Cl)cc3)cc2)C1O` (centres unmarked) [Compound 203] stands 2; under `CC1OC(OC2C(Oc3c4cc5cc3Oc3ccc(cc3Cl)C(O)C3NC(=O)C(NC(=O)C5NC(=O)C(CC(N)=O)NC(=O)C(NC(=O)c5[nH]c(=O)[nH]c(=O)c5N)C(O)c5ccc(c(Cl)c5)O4)c4ccc(O)c(c4)-c4c(O)cc(O)cc4C(C(=O)O)NC3=O)OC(CO)C(O)C2O)CC(C)(NCc2ccc(-c3ccc(Cl)cc3)cc2)C1O` (centres unmarked) [Compound 109], 2; under `CC1OC(OC2C(Oc3c4cc5cc3Oc3ccc(cc3Cl)[C@@H](O)[C@@H](NC(=O)CC3NC(=O)NC3=O)C(=O)N[C@@H](CC(N)=O)C(=O)N[C@H]5C(=O)NC3C(=O)N[C@H](C(=O)N[C@@H](C(=O)O)c5cc(O)cc(O)c5-c5cc3ccc5O)[C@H](O)c3ccc(c(Cl)c3)O4)OC(CO)C(O)C2O)CC(C)(NCc2ccc(-c3ccc(Cl)cc3)cc2)C1O` (some centres unmarked) [Compound 163], 2.

These data come from patent US6518243B1, “Desleucyl glycopeptide antibiotics and methods of making same” (Trustees of Princeton University, priority 1999, dated 2003).
